Structures are written as SMILES.

For the assay, the system named is PKMYT1 (CDK1 pThr14) in FUOV1 cells. Briefly: PKMYT1 cell-based activity assay, CDK1 pThr14 AlphaLISA in FUOV1 cells. The following applies: 2 h, 2 h compound incubation, read-out: FUOV-1 CDK1 pThr14 IC50. The method, then: To determine compound IC50 (PKMYT1 cell-based activity assay, CDK1 pThr14 AlphaLISA), FUOV1 cells were plated into a 96-well TC-treated culture plate at 50000 cells/well in a final volume of 100 μL of media. The plates were then allowed to equilibrate in a biological safety cabinet for 30 minutes before being placed in a humidified incubator at 37 C and 5% CO2 overnight. The next day, 2 μL of PKMYT1 inhibitors or DMSO were diluted in 400 μL of warmed culture media in a 96-well block using a Biomek FX liquid handler. Compounds were mixed in media and then 25 μL was dispensed into each well of the 96-well cell plate. Plates were centrifuged at 300 g for 10 seconds and then placed in the incubator for 2 hours. After the 2-hour incubation with compound, media was removed via aspiration using a multichannel pipette. 30 μL of 1× AlphaLISA lysis buffer (Perkin Elmer) supplemented with protease and phosphatase inhibitors as well as 1 mM PMSF, was added to each well. Plates were rotated at 500 g for 20 minutes to facilitate lysis. Plates were then sealed with aluminum foil and frozen at −80° C. for at least 1 hour. Lysates were thawed at 37° C. for 10 minutes, then 10 μL of each lysate was transferred in duplicate to a white 384-well assay plate. Antibody mixture was prepared in 1× AlphaLISA assay buffer (Perkin Elmer) containing antibodies (5 nM final concentration for rabbit pThr14-CDK1 from Abcam #ab58509 and mouse total CDK1 from ThermoFisher Scientific #33-1800). 5 μL of antibody mixture was added to each well of the assay plate. The assay plate was sealed and stored at 4° C. overnight. The next day, AlphaLISA bead mixture (Perkin Elmer) was prepared in 1× AlphaLISA assay buffer. Anti-rabbit IgG Acceptor (Perkin Elmer #AL104C) and anti-mouse IgG Donor beads (Perkin Elmer #AS104D) were prepared to a concentration of 80 μg/ml in assay buffer. 5 μL of bead mixture was added to each well of the assay plate (20 μg/ml final concentration for each bead). The plate was protected from light and incubated for 2 hours at room temperature. After a 2-hour incubation with beads, the plate was read using the Perkin Elmer EnVision Multimode plate reader with excitation at 680 nm and emission at 615 nm.
For orientation: Bead proximity is the source of the signal in Alpha formats.
On to `Cc1ccc2[nH]ncc2c1-c1nc(-c2ccc(F)cc2Nc2ncccc2F)nc(C(N)=O)c1N` [Compound 527], for which the concentration for half-maximal inhibition (IC50) – broadly, the concentration needed to halve the response being measured – came out at 11 nM. To `Cc1ccc2[nH]ncc2c1-c1nc(-c2ccc(F)cc2NC(=O)C2(C)CCCO2)nc(C(N)=O)c1N` (stereo not drawn) [Compound 528] belongs 118 nM; to `Cc1ccc2[nH]ncc2c1-c1nc(-c2cc(F)c(F)cc2NC2CCS(=O)(=O)CC2)nc(C(N)=O)c1N` [Compound 529], 251 nM; to `Cc1ccc2[nH]ncc2c1-c1nc(-c2cc(F)ccc2NS(=O)(=O)C(C)C)nc(C(N)=O)c1N` [Compound 530], 59 nM. The value for `Cc1ccc2[nH]ncc2c1-c1nc(-c2cc(F)ccc2NS(=O)(=O)C2CCCC2)nc(C(N)=O)c1N` [Compound 531] was 918 nM; that for `Cc1ccc2[nH]ncc2c1-c1nc(-c2ccc(F)cc2Nc2nccc(C#N)n2)nc(C(N)=O)c1N` [Compound 532] was 21 nM. To `Cc1ccc2[nH]ncc2c1-c1nc(-c2ccc(F)cc2Nc2ccncc2)nc(C(N)=O)c1N` [Compound 533] belongs 3 nM; to `Cc1ccnc(Nc2cc(F)ccc2-c2nc(C(N)=O)c(N)c(-c3c(C)ccc4[nH]ncc34)n2)n1` [Compound 534], 87 nM.

For the compound `Cc1ccc2[nH]ncc2c1-c1nc(-c2ccc(F)cc2Nc2ncc(C#N)cn2)nc(C(N)=O)c1N` [Compound 535], the IC50 turned out to be 151 nM. For the compound `COCCCNc1ncccc1-c1nc(C(N)=O)c(N)c(-c2c(C)ccc3[nH]ncc23)n1` [Compound 537], the IC50 was 256 nM. To `Cc1ccc2[nH]ncc2c1-c1nc(-c2ncccc2NCC(F)(F)F)nc(C(N)=O)c1N` [Compound 538] belongs 33 nM; to `Cc1ccc2[nH]ncc2c1-c1nc(-c2ccc(F)cc2Nc2nnccc2C#N)nc(C(N)=O)c1N` [Compound 539], 20 nM; to `Cc1ccnnc1Nc1cc(F)ccc1-c1nc(C(N)=O)c(N)c(-c2c(C)ccc3[nH]ncc23)n1` [Compound 540], 9 nM. Turning to `Cc1ccc2[nH]ncc2c1-c1nc(-c2ccc(F)cc2Nc2cncnc2)nc(C(N)=O)c1N` [Compound 541, 5-amino-2-(4-fluoro-2-(pyrimidin-5-ylamino)phenyl)-6-(5-methyl-1H-indazol-4-yl)pyrimidine-4-carboxamide], the IC50 was 47 nM.

Consider `Cc1ccc2[nH]ncc2c1-c1nc(-c2cccnc2NCCC#N)nc(C(N)=O)c1N` [Compound 542], for which the IC50 turned out to be 77 nM. To `Cc1ccc2[nH]ncc2c1-c1nc(-c2cccnc2NCCS(C)(=O)=O)nc(C(N)=O)c1N` [Compound 543] belongs 931 nM; to `Cc1ccc2[nH]ncc2c1-c1nc(-c2cccnc2NC2(C)CCOCC2)nc(C(N)=O)c1N` [Compound 544], 6 nM. Take `Cc1ccc2[nH]ncc2c1-c1nc(-c2cccnc2N[C@H]2[C@@H]3COC[C@@H]32)nc(C(N)=O)c1N` [Compound 545]: the half-inhibitory concentration (IC50) came out at 43 nM. The value for `Cc1ccc2[nH]ncc2c1-c1nc(-c2cccnc2N[C@H]2CCCOC2)nc(C(N)=O)c1N` [Compound 546] was 12 nM. The value for `Cc1ccc2[nH]ncc2c1-c1nc(-c2cccnc2N[C@@H]2CCOC2)nc(C(N)=O)c1N` [Compound 547] was 50 nM; that for `CO[C@H]1C[C@@H](Nc2ncccc2-c2nc(C(N)=O)c(N)c(-c3c(C)ccc4[nH]ncc34)n2)C1` [Compound 548] was 227 nM. `Cc1ccc2[nH]ncc2c1-c1nc(-c2cccnc2NC2CCN(C)C(=O)C2)nc(C(N)=O)c1N` (stereo not drawn) [Compound 549]: the IC50 worked out at 1320 nM. To `Cc1ccc2[nH]ncc2c1-c1nc(-c2cccnc2N[C@H]2CCOC2)nc(C(N)=O)c1N` [Compound 550] belongs 7 nM; to `CO[C@H]1C[C@H](Nc2ncccc2-c2nc(C(N)=O)c(N)c(-c3c(C)ccc4[nH]ncc34)n2)C1` [Compound 551], 151 nM; to `Cc1ccc2[nH]ncc2c1-c1nc(-c2cccnc2NC2CC(=O)N(C)C2)nc(C(N)=O)c1N` (stereo not drawn) [Compound 552], 245 nM. The value for `Cc1ccc2[nH]ncc2c1-c1nc(-c2ccc(F)cc2Nc2ccnnc2)nc(C(N)=O)c1N` [Compound 553] was 183 nM; that for `NC(=O)c1nc(-c2cc(F)ccc2Nc2ncc(F)cn2)nc(-c2c(Cl)ccc3[nH]ncc23)c1N` [Compound 554] was 138 nM. `Cc1ccc2[nH]ncc2c1-c1nc(-c2nccnc2NCC(F)(F)F)nc(C(N)=O)c1N` [Compound 555, 5-amino-6-(5-methyl-1H-indazol-4-yl)-2-(3-((2,2,2-trifluoroethyl)amino)pyrazin-2-yl)pyrimidine-4-carboxamide]: the IC50 came to 219 nM. To `COCCOc1ccc2oc3c(C(N)=O)c(N)c(-c4c(C)ccc5[nH]ncc45)cc3c2n1` [Compound 556] belongs 132 nM. As for `Cc1ccc2[nH]ncc2c1-c1cc2c(oc3ccc(F)nc32)c(C(N)=O)c1N` [Compound 557], the IC50 amounted to 416 nM. `COCCNc1ccc2oc3c(C(N)=O)c(N)c(-c4c(C)ccc5[nH]ncc45)cc3c2n1` [Compound 558, 7-amino-2-((2-methoxyethyl)amino)-8-(5-methyl-1H-indazol-4-yl)benzofuro[3,2-b]pyridine-6-carboxamide]: the IC50 turned out to be 95 nM. `Cc1ccc2[nH]ncc2c1-c1cc2c(oc3ccc(OCC(C)(C)C#N)nc32)c(C(N)=O)c1N` [Compound 559]: the half-maximal inhibitory concentration (IC50) came out at 1290 nM. In the case of `Cc1ccc2[nH]ncc2c1-c1cc2c(oc3ccc(OCC(F)(F)F)nc32)c(C(N)=O)c1N` [Compound 560], the IC50 was found to be 7040 nM. To `Cc1ccc2[nH]ncc2c1-c1nc(-c2cccnc2NC2CCN(C)C2=O)nc(C(N)=O)c1N` (stereo not drawn) [Compound 561] belongs 426 nM. To `Cc1ccc2[nH]ncc2c1-c1nc(-c2cccnc2Nc2ccncc2)nc(C(N)=O)c1N` [Compound 562] belongs 24 nM; to `Cc1ccnnc1Nc1ncccc1-c1nc(C(N)=O)c(N)c(-c2c(C)ccc3[nH]ncc23)n1` [Compound 563], 38 nM; to `Cc1cc(Nc2cc(F)ccc2-c2nc(C(N)=O)c(N)c(-c3c(C)ccc4[nH]ncc34)n2)ccn1` [Compound 564], 15 nM. The value for `Cc1ccnc(Nc2ncccc2-c2nc(C(N)=O)c(N)c(-c3c(C)ccc4[nH]ncc34)n2)n1` [Compound 565, 5-amino-6-(5-methyl-1H-indazol-4-yl)-2-(2-((4-methylpyrimidin-2-yl)amino)pyridin-3-yl)pyrimidine-4-carboxamide] was 71 nM; that for `COc1cnnc(Nc2cc(F)ccc2-c2nc(C(N)=O)c(N)c(-c3c(C)ccc4[nH]ncc34)n2)c1` [Compound 566] was 76 nM; that for `Cc1cc(C)nc(Nc2cc(F)ccc2-c2nc(C(N)=O)c(N)c(-c3c(C)ccc4[nH]ncc34)n2)n1` [Compound 567] was 389 nM.

Consider `Cc1nc(F)cc(Nc2cc(F)ccc2-c2nc(C(N)=O)c(N)c(-c3c(C)ccc4[nH]ncc34)n2)n1` [Compound 568], for which the 50% inhibitory concentration (IC50) was determined as 15 nM.

With `Cc1ccc2[nH]ncc2c1-c1cc2c(oc3ccc(OCc4cccnc4)nc32)c(C(N)=O)c1N` [Compound 569, 7-amino-8-(5-methyl-1H-indazol-4-yl)-2-(pyridin-3-ylmethoxy)benzofuro[3,2-b]pyridine-6-carboxamide], the IC50 amounted to 712 nM. The value for `COc1ccnc(Nc2cc(F)ccc2-c2nc(C(N)=O)c(N)c(-c3c(C)ccc4[nH]ncc34)n2)n1` [Compound 570] was 111 nM; that for `Cc1ccc2[nH]ncc2c1-c1nc(-c2cc(F)ccc2NS(=O)(=O)C2CCC2)nc(C(N)=O)c1N` [Compound 571] was 283 nM.

Turning to `Cc1ccc2[nH]ncc2c1-c1nc(-c2ccc(F)cc2Nc2nccc(C(F)(F)F)n2)nc(C(N)=O)c1N` [Compound 572], the IC50 came to 764 nM.

Regarding `Cc1ccc2[nH]ncc2c1-c1nc(-c2cncnc2NCC(F)(F)F)nc(C(N)=O)c1N` [Compound 573], the IC50 turned out to be 182 nM. With `Cc1ccc2[nH]ncc2c1-c1cc2c(oc3ccc(O[C@H]4CCOC4)nc32)c(C(N)=O)c1N` [Compound 574], the 50% inhibitory concentration (IC50) is 1330 nM.

For the compound `Cc1ccc2[nH]ncc2c1-c1cc2c(oc3ccc(NC4CCOCC4)nc32)c(C(N)=O)c1N` [Compound 575], the IC50 is 24 nM. The value for `Cc1ccc2[nH]ncc2c1-c1nc(-c2ccc(F)cc2Nc2nccc(C(C)(C)C)n2)nc(C(N)=O)c1N` [Compound 576] was 4580 nM. The value for `Cc1ccc2[nH]ncc2c1-c1nc(-c2ccc(F)cc2Nc2nccc(N3CCOCC3)n2)nc(C(N)=O)c1N` [Compound 577] was 702 nM. The value for `Cc1cc(Nc2cc(F)ccc2-c2nc(C(N)=O)c(N)c(-c3c(C)ccc4[nH]ncc34)n2)nc(C)n1` [Compound 578] was 150 nM.

The record behind these values is patent publication US20250304537A1 (Repare Therapeutics Inc., priority 2022, published 2025).
